According to ChEMBL document CHEMBL1141636, “New ultra-short acting hypnotic: synthesis, biological evaluation, and metabolic profile of ethyl 8-oxo-5,6,7,8-tetrahydro-thiazolo[3,2-a][1,3]diazepin-3-carboxylate (HIE-124)” (Bioorg Med Chem Lett, 2008):

Tests used:
Mus musculus [1] = experiment: Hypnotic effect in mouse assessed as sleeping time at 50 mg/kg, iv by loss of righting reflex method; assay type: functional
Mus musculus [2] = experiment: Hypnotic effect in mouse assessed as sleeping time at 100 mg/kg, iv by loss of righting reflex method; assay type: functional
Mus musculus [3] = experiment: Potentiation of thiopental-induced hypnosis in mouse assessed as sleeping time at 50 mg/kg, iv by loss of righting reflex method; assay type: functional
Mus musculus [4] = experiment: Potentiation of thiopental-induced hypnosis in mouse assessed as sleeping time at 100 mg/kg, iv by loss of righting reflex method; assay type: functional
Mus musculus [5] = experiment: Hypnotic effect in mouse assessed as sleeping time at 100 mg/kg, ip; assay type: functional; conditions: route intraperitoneal
Mus musculus [6] = experiment: Hypnotic effect in mouse assessed as sleeping time at 200 mg/kg, ip; assay type: functional; conditions: route intraperitoneal
Mus musculus [7] = experiment: Potentiation of thiopental-induced hypnosis in mouse assessed as sleeping time at 100 mg/kg, ip; assay type: functional; conditions: route intraperitoneal
Mus musculus [8] = experiment: Potentiation of thiopental-induced hypnosis in mouse assessed as sleeping time at 200 mg/kg, ip; assay type: functional; conditions: route intraperitoneal
Mus musculus [9] = experiment: Acute tolerance in mouse assessed as sleeping time at 200 mg/kg, ip 3 times day after 3 days; assay type: ADME, organism-based; set-up: dose 200 mg/kg, route intraperitoneal; conditions: in vivo, 72 h
Mus musculus [10] = experiment: Acute tolerance in mouse assessed as sleeping time at 200 mg/kg, ip; assay type: ADME, organism-based; set-up: dose 200 mg/kg, route intraperitoneal; conditions: in vivo
Mus musculus [11] = experiment: Hypnotic effect in mouse assessed as sleeping time at 65 mg/kg, ip; assay type: functional; conditions: route intraperitoneal

Compound | Time (Mus musculus [1]) [min] | Time (Mus musculus [2]) [min] | Time (Mus musculus [3]) [min] | Time (Mus musculus [4]) [min] | Time (Mus musculus [5]) [min] | Time (Mus musculus [6]) [min] | Time (Mus musculus [7]) [min] | Time (Mus musculus [8]) [min] | Time (Mus musculus [9]) [min] | Time (Mus musculus [10]) [min] | Time (Mus musculus [11]) [min]
CCOC(=O)C1=CSC2=NC(=O)CCCN12 | 0.75 | 1.48 | 19.9 | 25.7 | 2.4 | 9.1 | 49.2 | 155.7 | 8.7 | 10.3 | –
CCCC(C)C1(CC)C(=O)[N-]C(=S)NC1=O.[Na+] (configuration not stated) [THIOPENTAL SODIUM] | 4.9 | – | – | – | – | – | – | – | – | – | 15.2
